In PubChem BioAssay AID488797 (The Scripps Research Institute Molecular Screening Center, 2010):
Active and inactive are the calls of the source.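 Rule for the calls: active = half-inhibiting concentration IC50 at or below 10 µM; inactive = IC50 above 10 µM.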

Target: Female germline-specific tumor suppressor gld-1 (Caenorhabditis elegans) (UniProt Q17339)
Assay: potency of GLD-1/TGE RNA binding inhibitors, late-stage follow-up, biochemical, fluorescence polarization, IC50, powder samples (AID 488797)
Details: GLD-1 / FL-TGE RNA binding

Sequence of Female germline-specific tumor suppressor gld-1 (Caenorhabditis elegans) (Q17339 whole entry, looked up): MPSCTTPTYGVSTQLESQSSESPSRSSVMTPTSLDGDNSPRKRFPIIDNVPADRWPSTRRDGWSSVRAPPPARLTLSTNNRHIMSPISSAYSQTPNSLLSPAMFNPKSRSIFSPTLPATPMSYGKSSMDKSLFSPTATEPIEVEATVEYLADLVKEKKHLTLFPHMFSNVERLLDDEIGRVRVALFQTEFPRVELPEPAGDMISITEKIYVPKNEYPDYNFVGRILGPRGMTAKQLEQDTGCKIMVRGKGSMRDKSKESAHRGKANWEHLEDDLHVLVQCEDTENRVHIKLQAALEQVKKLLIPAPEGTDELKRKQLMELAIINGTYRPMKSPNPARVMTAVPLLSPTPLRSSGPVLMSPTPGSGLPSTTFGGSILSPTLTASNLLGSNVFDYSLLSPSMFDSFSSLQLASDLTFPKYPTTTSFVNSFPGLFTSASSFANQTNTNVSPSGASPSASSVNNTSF

| Compound | IC50 |
| --- | --- |
| O=c1[nH]c2cc3ccccc3cc2nc1C(F)(F)F | 2.5 µM |
| Nc1ccc2nonc2c1[N+](=O)[O-] | > 59.6 µM (inactive) |
| Cc1ccc(S(=O)(=O)Nc2cc3c(C(=O)Nc4ccccc4)c(C)oc3c3ccccc23)c(C)c1 | 1.14 µM |
| CCN(CC)S(=O)(=O)c1ccc(N2CCCC2)c(NS(=O)(=O)c2ccc(F)cc2)c1 | inactive |
| O=C(CN1C(=O)NC2(CCCCC2)C1=O)Oc1ccc2c(C(F)(F)F)cc(=O)oc2c1 | 5.62 µM |
| Nc1c(O)ccc2c1C(=O)c1ccccc1C2=O | 4.17 µM |
| CC1=CC(=O)c2c(O)ccc(O)c2C1=O | 5.67 µM |
| CCOC(=O)c1c(C)oc2c1cc(NS(=O)(=O)c1ccc(C)cc1)c1ccccc12 | > 59.6 µM (inactive) |
| O=C1C2=C(SCCS2)C(=O)N1CCCO | 4.73 µM |
| Nc1ccc(O)c2c1C(=O)c1ccccc1C2=O | 3 µM |
| COc1ccc(C=Nc2c(-c3ccco3)nc3ccccn23)cc1OC | > 59.6 µM (inactive) |
| COc1ccc(/C=C(\CC(=O)O)c2nc3ccccc3s2)cc1O | 2.17 µM |
| CCCCn1c(=O)[nH]c2nc3cc(NC(C)=O)ccc3nc2c1=O | 2.62 µM |
| Cc1ccc(S(=O)(=O)Nc2cc3c(C(=O)Nc4ccccc4)c(C)oc3c3ccccc23)cc1 | 1.66 µM |
| O=c1[nH]c(=O)c2nc3ccccc3nc2[nH]1 | inactive |
